Experimental data published in patent publication US20230226212A1, “MUSCLE-TARGETING COMPLEXES AND USES THEREOF” (Dyne Therapeutics, Inc., priority 2020, published 2023).
Like-named read-outs stand apart in the source and are kept apart here. Each block holds one substance with its values, some of them ahead of it.

Experiments:
[1] = test system: DMPK; test: DMPK knockdown by unconjugated PMOs in primary human myotubes (Example 23); format: cell-based; settings: unconjugated PMO; 3 days; qPCR
Description: Additional DMPK targeting oligonucleotides (PMOs) were designed and tested for their activity in reducing DMPK expression in primary human myotubes. Wild-type primary myoblasts were cultured in PromoCell Skeletal Muscle growth medium with 5% FBS and penicillin/streptomycin until nearly confluent. Cells were then seeded into a 96 well plate at 50000 cells per well and allowed to recover for 24 hours. Cells were then differentiated in a differentiation medium of DMEM with glutamine and penicillin/streptomycin for 7 days. Cells were then treated with the unconjugated PMO for 3 days. Total RNA was collected from cells, cDNA was synthesized and DMPK expression was measured by qPCR.

[2] = test system: DUX4; test: expression of downstream DUX4 genes in U-2 OS cells (Example 12); format: cell-based, human; settings: 72 hours
Description: Human U-2 OS cells were dosed with the complex. Briefly, U-2 OS cells were seeded at a density of 10 k cells/well before being allowed to recover overnight. […] Cells were incubated for 72 hours before being harvested for total RNA. cDNA was then synthesized from the total RNA extracts and qPCR was performed to determine expression of downstream DUX4 genes (ZSCAN4, MBD3L2, TRIM43) in technical quadruplicate. All qPCR data were analyzed using a standard ΔΔCT method and were normalized to a plate-based negative control comprised of untreated cells (i.e., without any oligonucleotide). Results were then converted to fold change to evaluate efficacy.

[3] = test system: DUX4; test: expression of DUX4-associated genes in FSHD patient-derived myotubes (Example 26); format: cell-based
Description: FSHD patient-derived myotubes were treated with FM-10 conjugated to an anti-TfRl Fab or naked FM-10. FM-10 has the sequence 5′-[…]-3′ (SEQ ID NO: 260). Expression of mRNA transcribed from three genes known to be only expressed following DUX4 activation was subsequently measured in the myotubes. Expression of these three DUX4-associated genes was reduced, as shown in FIG. 41A (naked oligonucleotide) and 41B (Ab-oligonucleotide).

[4] = test system: DMPK; test: DMPK expression in NHP myotubes (Example 15); format: cell-based; settings: dose-responsive
Source text: (§1) The antisense oligonucleotides were further assessed to identify oligos that are safe in vivo (e.g., as indicated by low immunogenicity as measured by cytokine induction), and further based on manufacturability and secondary structure considerations. Three antisense oligonucleotides, […] (SEQ ID NO: 329, DMPK-ASO-1), […] (SEQ ID NO: 330, DMPK-ASO-2), and […] (SEQ ID NO: 331, DMPK-ASO-3) were selected. These oligonucleotides were then further evaluated for their ability to reduce DMPK expression in DM1 myotubes and NHP myotubes in a dose-responsive manner. The tool compound control DMPK-ASO was used as control.

[5] = test system: DMPK; test: DMPK expression in DM1 myotubes (Example 15); format: cell-based; settings: dose-responsive
Source text: as §1

[6] = test system: DMPK; test: DMPK transcript knockdown by oligonucleotides in RD cells (Example 21); format: cell-based; settings: free or transfected oligonucleotide, 3 days, relative to PBS-treated cells
Description: DMPK-targeting oligonucleotides (e.g., ASO) were tested in rhabdomyosarcoma (RD) cells for knockdown of DMPK transcript expression. RD cells were cultured in a growth medium of DMEM with glutamine, supplemented with 10% FBS and penicillin/streptomycin until nearly confluent. Cells were then seeded into a 96 well plate at 20 K cells per well and were allowed to recover for 24 hours. Cells were then treated with free DMPK-targeting oligonucleotides or by transfection of the oligonucleotides using 0.3 µL per well of Lipofectamine MessengerMAX transfection reagent. After 3 days, total RNA was collected from cells, cDNA was synthesized and DMPK expression was measured by qPCR.

[7] = biological target: human transferrin receptor 1 (human) (UniProt P02786); test: Carterra LSA biosensor, IgG captured on anti-IgG lawn, hTfR1 injected, 25C, 1:1 fit
[8] = test system: creatine kinase; test: creatine kinase activity levels in mdx mice (Example 14); format: in vivo, mouse; settings: single i.v. dose 30 mg/kg, two and four weeks after injection
Description: (§2) Each experimental condition was replicated in five mdx mice. Five wild-type mice (healthy mice) were also dosed with vehicle control (saline).
All mice in this Example were further tested for creatine kinase activity levels two weeks and four weeks after injection.

[9] = test system: mdx mice; test: open field chamber with hind limb fatigue challenge in mdx mice (Example 14); format: in vivo, mouse; settings: single i.v. dose 30 mg/kg, two weeks after injection, hind limb fatigue challenge between stages
Description: as §2
Two weeks after injection, the functional activity of all treated mice was determined using an open field chamber experiment. The experiment involved three consecutive stages: (1) a 10-minute period during which each mouse was placed into an open field chamber; (2) a 10-minute period during which each mouse was subjected to a hind limb fatigue challenge; and (3) a 10-minute period during which each mouse was placed into an open field chamber. The total horizontal distances traveled during stages (1) and (3) were collected. The percent change in the total distance traveled between the first and second tests.

[10] = test system: mdx mice; test: cage running wheel test in mdx mice (Example 14); format: in vivo, mouse; settings: single i.v. dose 30 mg/kg, four weeks after injection, 24-hour period
Description: as §2
Four weeks after injection, the activity of all treated mice was determined using a cage running wheel test. Each mouse was individually placed into cages with a running wheel for a 24-hour period. The 24-hour period involved five hours of light on followed by thirteen hours of darkness, and ending with six hours of light. The total distance traveled (in meters, m) by each mouse on the running wheel was continuously collected throughout the 24-hour period and subsequently binned into discrete one-hour increments.

human transferrin receptor 1 (human), sequence (P02786 89-760 limits assumed): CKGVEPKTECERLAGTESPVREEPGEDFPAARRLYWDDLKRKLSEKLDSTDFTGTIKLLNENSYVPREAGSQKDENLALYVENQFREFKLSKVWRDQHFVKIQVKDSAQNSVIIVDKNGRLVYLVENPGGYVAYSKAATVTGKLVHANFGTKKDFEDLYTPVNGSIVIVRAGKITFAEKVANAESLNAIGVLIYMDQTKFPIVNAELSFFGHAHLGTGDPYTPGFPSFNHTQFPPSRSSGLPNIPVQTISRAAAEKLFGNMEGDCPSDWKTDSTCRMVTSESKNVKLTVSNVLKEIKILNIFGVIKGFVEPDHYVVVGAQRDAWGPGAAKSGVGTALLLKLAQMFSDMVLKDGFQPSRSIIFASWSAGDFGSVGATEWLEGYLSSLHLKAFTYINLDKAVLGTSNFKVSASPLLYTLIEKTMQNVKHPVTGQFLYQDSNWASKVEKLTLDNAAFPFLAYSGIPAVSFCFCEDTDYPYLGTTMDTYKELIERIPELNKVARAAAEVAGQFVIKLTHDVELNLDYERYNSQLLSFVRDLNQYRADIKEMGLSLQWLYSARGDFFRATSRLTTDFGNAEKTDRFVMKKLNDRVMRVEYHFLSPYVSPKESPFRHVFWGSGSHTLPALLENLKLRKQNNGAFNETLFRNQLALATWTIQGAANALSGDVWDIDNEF

Substance: ATGGGCTCCGCTGGGTGGTGG (SEQ ID NO: 315) (all phosphorodiamidate morpholino (PMO)) [PMO 7, DMPK-targeting PMO, Exon 2]
- % DMPK Knockdown in Primary Human Myotubes [1]: 11%

Substance: GGGCATTTTAATATATCTCTGAACT (SEQ ID NO: 260) (PMO chemistry, chemistry not fully specified) [naked FM10, phosphorodiamidate morpholino oligomer (PMO) targeting DUX4]
- ZSCAN4, MBD3L2, and TRIM43 expression ([2]; 1 µM): fails to reduce
- MDB3L2 expression ([2]; 10 µM): no effect
- ZSCAN4 and TRIM43 expression ([2]; 10 µM): modest reduction
- expression of three DUX4-associated genes [3]: reduced
- IC50 ([3]; MBD3L2 transcript, read-out: IC50 (nM), MBD3L2): 1210 nM
- IC50 ([3]; TRIM43 transcript, read-out: IC50 (nM), TRIM43): 1120 nM
- IC50 ([3]; ZSCAN4 transcript, read-out: IC50 (nM), ZSCAN4): 643 nM

Substance: TCCGCTGGGTGGTGGGAAAAGAA (SEQ ID NO: 314) (all phosphorodiamidate morpholino (PMO)) [PMO 6, DMPK-targeting PMO, Exon 2]
- % DMPK Knockdown in Primary Human Myotubes [1]: 9%

Substance: CGGAGCTCACCAGGTAGTTCT (SEQ ID NO: 325) (all phosphorodiamidate morpholino (PMO)) [PMO 40, DMPK-targeting PMO, Intron 4-5]
- % DMPK Knockdown in Primary Human Myotubes [1]: 73%

Substance: GCCTAGGGACCTGCGGGAGAG (SEQ ID NO: 321) (all phosphorodiamidate morpholino (PMO)) [PMO 13, DMPK-targeting PMO, Exon 15]
- % DMPK Knockdown in Primary Human Myotubes [1]: 62%

Substance: CCACCCTCTGTCTGTCTCC (SEQ ID NO: 313) (all phosphorodiamidate morpholino (PMO)) [PMO 5, DMPK-targeting PMO, intron 1-2]
- % DMPK Knockdown in Primary Human Myotubes [1]: 64%

Substance: AGGTACTGAGAAGGGTTCGTC (SEQ ID NO: 319) (all phosphorodiamidate morpholino (PMO)) [PMO 11, DMPK-targeting PMO, Exon 5]
- % DMPK Knockdown in Primary Human Myotubes [1]: 40%

Substance: GCGUAGAAGGGCGUCUGCCC (SEQ ID NO: 329) (chemistry not given here) [DMPK-ASO-1, DMPK-targeting antisense oligonucleotide]
- reduction of DMPK expression in NHP myotubes [4]: dose-dependently reducing DMPK
- reduction of DMPK expression in DM1 myotubes [5]: dose-dependently reducing DMPK
- DMPK expression level [6]: reduced

Substance: TGGAGGGCCTTTTATTCGCGAGG (SEQ ID NO: 323) (all phosphorodiamidate morpholino (PMO)) [PMO 15, DMPK-targeting PMO, polyA]
- % DMPK Knockdown in Primary Human Myotubes [1]: 66%

Substance: ACGATGGGCTCCGCTGGG (SEQ ID NO: 316) (all phosphorodiamidate morpholino (PMO)) [PMO 8, DMPK-targeting PMO, Exon 2]
- % DMPK Knockdown in Primary Human Myotubes [1]: 60%

Substance: TAGGCACTCACCCACTGCAAGA (SEQ ID NO: 324) (all phosphorodiamidate morpholino (PMO)) [PMO 39, DMPK-targeting PMO, Exon 1]
- % DMPK Knockdown in Primary Human Myotubes [1]: 69%

Substance: TCCACCCTGACTCCAGGTGAC (SEQ ID NO: 310) (all phosphorodiamidate morpholino (PMO)) [PMO 2, DMPK-targeting PMO, intron 1-2]
- % DMPK Knockdown in Primary Human Myotubes [1]: 16%

Substance: CAGGTGACAGTTCAGGTGCAG (SEQ ID NO: 309) (all phosphorodiamidate morpholino (PMO)) [PMO 1, DMPK-targeting PMO, intron 1-2]
- % DMPK Knockdown in Primary Human Myotubes [1]: 59%

Substance: TAGGGACCTGCGGAGAGGGCGA (SEQ ID NO: 320) (all phosphorodiamidate morpholino (PMO)) [PMO 12, DMPK-targeting PMO, Exon 15]
- % DMPK Knockdown in Primary Human Myotubes [1]: 35%

Substance: CCAUCUCGGCCGGAAUCCGC (SEQ ID NO: 331) (chemistry not given here) [DMPK-ASO-3, DMPK-targeting antisense oligonucleotide]
- reduction of DMPK expression in NHP myotubes [4]: dose-dependently reducing DMPK
- reduction of DMPK expression in DM1 myotubes [5]: dose-dependently reducing DMPK
- DMPK expression level [6]: reduced

Substance: GCCTTTTATTCGCGAGGGTCGG (SEQ ID NO: 322) (all phosphorodiamidate morpholino (PMO)) [PMO 14, DMPK-targeting PMO, polyA]
- % DMPK Knockdown in Primary Human Myotubes [1]: 73%

- Kd [7]: 0.536 nM
- kon [7]: 774000 M⁻¹ s⁻¹
Substance: anti-TfR1 antibody OKT9 (mouse IgG, control)

Substance: CCTTCTCTCTGCCTCTCAGCTT (SEQ ID NO: 312) (all phosphorodiamidate morpholino (PMO)) [PMO 4, DMPK-targeting PMO, intron 1-2]
- % DMPK Knockdown in Primary Human Myotubes [1]: 58%

Substance: CCATCCTTGGGCAGAGACCT (SEQ ID NO: 317) (all phosphorodiamidate morpholino (PMO)) [PMO 9, DMPK-targeting PMO, Intron 4-5]
- % DMPK Knockdown in Primary Human Myotubes [1]: 41%

Substance: GGCCAAACCUCGGCUUACCUGAAAU (SEQ ID NO: 261) (PMO chemistry, chemistry not fully specified) [MDX-ASO, naked exon 23 skipping PMO ASO]
- creatine kinase activity [8]: no significant benefit
- average less distance traveled during stage (3) relative to stage (1), open field [9]: about 85%
- distance traveled on running wheel during the dark period [10]: traveled considerably shorter distances

Substance: GAGAAGGAAATAAGACCCAGTT (SEQ ID NO: 311) (all phosphorodiamidate morpholino (PMO)) [PMO 3, DMPK-targeting PMO, intron 1-2]
- % DMPK Knockdown in Primary Human Myotubes [1]: 14%

Substance: CCCAGCGCCCACCAGUCACA (SEQ ID NO: 330) (chemistry not given here) [DMPK-ASO-2, DMPK-targeting antisense oligonucleotide]
- reduction of DMPK expression in NHP myotubes [4]: dose-dependently reducing DMPK
- reduction of DMPK expression in DM1 myotubes [5]: dose-dependently reducing DMPK
- DMPK expression level [6]: reduced

Substance: ATGACCAGGTACTGAGAAGGG (SEQ ID NO: 318) (all phosphorodiamidate morpholino (PMO)) [PMO 10, DMPK-targeting PMO, Exon 5]
- % DMPK Knockdown in Primary Human Myotubes [1]: 33%

Substance: AGGGCAGTGCTTACCTGAGGG (SEQ ID NO: 326) (all phosphorodiamidate morpholino (PMO)) [PMO 41, DMPK-targeting PMO, Intron 9-10]
- % DMPK Knockdown in Primary Human Myotubes [1]: 57%
